Data reported in patent EP4729522A1, “CRYSTAL FORMS OF SODIUM SALT OF POLYCYCLIC CARBAMOYLPYRIDONE DERIVATIVE, AND PREPARATION METHOD THEREFOR AND USE THEREOF” (Jiangsu Aidea Pharmaceutical Group Co., Ltd., priority 2023, dated 2024).
Entries after “also recorded” stand apart in the source; their conditions may differ. Structures can show the parent of a compound that is named as a salt.

Key:
Type in all cases: physicochemical
[1] = High pressure property test (XRPD after pressing); conditions: pressed at 10 MPa for 5 minutes, 13 mm die
[2] = Hygroscopicity by Dynamic Vapor Sorption (DVS)
Description: [table] […] The sample, after DVS testing, was then analyzed by XRPD. Table 8 DVS test results of sodium salts

[3] = Simulated granulation test (ethanol wetting and grinding, XRPD); conditions: wetted with ethanol, then ground
Description: The resulting solid and the sample without the addition of wetting ethanol were analyzed by XRPD, respectively.

[4] = Influencing factors stability test (high temperature, high humidity, lighting; XRPD, HPLC, appearance); conditions: for Purity: HPLC
Description: The petri dishes were then transferred into constant temperature and humidity chambers under three different conditions: high temperature (60 °C, sealed), high relative humidity (RH: 90 ± 5%, 25 °C, open), and lighting (5000 ± 500 Lux, open). The samples were tested on Day 5 and Day 10.

[5] = Day 5, High humidity (RH 90 ± 5%, 25 °C, open)
[6] = Day 5, High temperature (60 °C, sealed)
[7] = Day 5, Lighting (5000 ± 500 Lux, open)
[8] = Day 10, High humidity (RH 90 ± 5%, 25 °C, open)
[9] = Day 10, High temperature (60 °C, sealed)
[10] = Day 10, Lighting (5000 ± 500 Lux, open)

C[C@H]1N2C(=O)c3c(O)c(=O)c(C(=O)NCc4ccc(F)cc4F)cn3C[C@@H]2OCC12CC2 [Sodium salt crystal form A]
crystal form after the high-pressure test (XRPD) [1]: did not change
weight gain at 80% relative humidity (RH) ([2]; DVS, 80% RH, 25°C): 0.69%
Adsorption ([2]; Relative humidity 0%, adsorption (cycle 1 of 2), 25°C): 0.0000%
Adsorption ([2]; Relative humidity 0%, adsorption (cycle 2 of 2), 25°C): -0.0471%
Desorption ([2]; Relative humidity 0%, desorption (cycle 2 of 2), 25°C): -0.0614%
Desorption ([2]; Relative humidity 0%, first desorption (cycle 1 of 2), 25°C): -0.0471%
Adsorption ([2]; Relative humidity 10%, adsorption (cycle 1 of 2), 25°C): 0.0668%
Adsorption ([2]; Relative humidity 10%, adsorption (cycle 2 of 2), 25°C): 0.0230%
Desorption ([2]; Relative humidity 10%, desorption (cycle 2 of 2), 25°C): 0.0147%
Desorption ([2]; Relative humidity 10%, first desorption (cycle 1 of 2), 25°C): 0.0285%
Adsorption ([2]; Relative humidity 20%, adsorption (cycle 1 of 2), 25°C): 0.1197%
Adsorption ([2]; Relative humidity 20%, adsorption (cycle 2 of 2), 25°C): 0.0818%
Desorption ([2]; Relative humidity 20%, desorption (cycle 2 of 2), 25°C): 0.0758%
Desorption ([2]; Relative humidity 20%, first desorption (cycle 1 of 2), 25°C): 0.0891%
Adsorption ([2]; Relative humidity 30%, adsorption (cycle 1 of 2), 25°C): 0.1725%
Adsorption ([2]; Relative humidity 30%, adsorption (cycle 2 of 2), 25°C): 0.1394%
Desorption ([2]; Relative humidity 30%, desorption (cycle 2 of 2), 25°C): 0.1373%
Desorption ([2]; Relative humidity 30%, first desorption (cycle 1 of 2), 25°C): 0.1498%
Adsorption ([2]; Relative humidity 40%, adsorption (cycle 1 of 2), 25°C): 0.2282%
Adsorption ([2]; Relative humidity 40%, adsorption (cycle 2 of 2), 25°C): 0.2001%
Desorption ([2]; Relative humidity 40%, desorption (cycle 2 of 2), 25°C): 0.2149%
Desorption ([2]; Relative humidity 40%, first desorption (cycle 1 of 2), 25°C): 0.2239%
Adsorption ([2]; Relative humidity 50%, adsorption (cycle 1 of 2), 25°C): 0.2857%
Adsorption ([2]; Relative humidity 50%, adsorption (cycle 2 of 2), 25°C): 0.2641%
Desorption ([2]; Relative humidity 50%, desorption (cycle 2 of 2), 25°C): 0.3200%
Desorption ([2]; Relative humidity 50%, first desorption (cycle 1 of 2), 25°C): 0.3320%
Adsorption ([2]; Relative humidity 60%, adsorption (cycle 1 of 2), 25°C): 0.3539%
Adsorption ([2]; Relative humidity 60%, adsorption (cycle 2 of 2), 25°C): 0.3365%
Desorption ([2]; Relative humidity 60%, desorption (cycle 2 of 2), 25°C): 0.5185%
Desorption ([2]; Relative humidity 60%, first desorption (cycle 1 of 2), 25°C): 0.5250%
Adsorption ([2]; Relative humidity 70%, adsorption (cycle 1 of 2), 25°C): 0.5505%
Adsorption ([2]; Relative humidity 70%, adsorption (cycle 2 of 2), 25°C): 0.5627%
Desorption ([2]; Relative humidity 70%, desorption (cycle 2 of 2), 25°C): 0.6037%
Desorption ([2]; Relative humidity 70%, first desorption (cycle 1 of 2), 25°C): 0.6126%
Adsorption ([2]; Relative humidity 80%, adsorption (cycle 1 of 2), 25°C): 0.6895%
Adsorption ([2]; Relative humidity 80%, adsorption (cycle 2 of 2), 25°C): 0.6928%
Desorption ([2]; Relative humidity 80%, desorption (cycle 2 of 2), 25°C): 0.7082%
Desorption ([2]; Relative humidity 80%, first desorption (cycle 1 of 2), 25°C): 0.7176%
Adsorption ([2]; Relative humidity 90%, adsorption (cycle 1 of 2), 25°C): 0.9012%
Adsorption ([2]; Relative humidity 90%, adsorption (cycle 2 of 2), 25°C): 0.8889%
Desorption ([2]; Relative humidity 90%, desorption (cycle 2 of 2), 25°C): 0.8889%
Desorption ([2]; Relative humidity 90%, first desorption (cycle 1 of 2), 25°C): 0.9012%
After DVS testing Crystal form change ([2]; XRPD after DVS testing): did not change; also recorded: Crystal form A, unchanged
change in crystal form after ethanol wetting and grinding (XRPD) [3]: did not exhibit a change in crystal form
Property ([4]; Day 0): off-white solid
XRPD ([4]; Day 0): Crystal Form A
Purity ([4]; Day 0): 99.57%
Property [4, 5]: off-white solid
XRPD [4, 5]: Crystal Form A
Purity [4, 5]: 99.64%
Property [4, 6]: off-white solid
XRPD [4, 6]: Crystal Form A
Purity [4, 6]: 99.69%
Property [4, 7]: off-white solid
XRPD [4, 7]: Crystal Form A
Purity [4, 7]: 99.68%
Property [4, 8]: off-white solid
XRPD [4, 8]: Crystal Form A
Purity [4, 8]: 99.72%
Property [4, 9]: off-white solid
XRPD [4, 9]: Crystal Form A
Purity [4, 9]: 99.72%
Property [4, 10]: off-white solid
XRPD [4, 10]: Crystal Form A
Purity [4, 10]: 99.72%
